# Data from patent publication US20230348437A1, “COMPOUNDS, COMPOSITIONS AND METHODS” (Denali Therapeutics Inc., priority 2020, published 2023).
# pIC50: −log10 of the molar value.
# Experiments:
# [1] = test system: NLRP3 (IL-1β release from THP-1 cells); assay: IL-1β detection in IFN-γ differentiated THP-1 cells, LPS induction and ATP, 96 well format; type: cell-based; conditions: Homo sapiens, IFN-γ 25 ng/mL, LPS 50 ng/mL, ATP 5 mM, IL-1β ELISA, read-out: Activity (IC50 class)
# Protocol: (§1) Compounds as provided herein were tested in the following assay. Cell culture medium employed contained RPMI 1640 medium (89%), FBS (10%), Pen/Strep (1%), and 2-mercaptoethanol (0.05 mM). Freezing medium was made up of 90% FBS and 10% DMSO. THP-1 cells were removed from the liquid nitrogen and placed into a 37° C. water bath to thaw, until signs of ice dissipated. The cells were then added to 9 mL of warm cell culture medium and centrifuged for 5 minutes at 1000 rpm. The supernatant was discarded, and the cells were resuspended in new cell culture medium. The THP-1 cells were then split and cultured in the cell culture medium, being passaged every 2-3 days (5×10^5 cells/mL passaged every two days, 3×10^5 cells/mL passaged every three days). Cell density was maintained between 5×10^5-1.5×10^6 viable cells/mL.
# To freeze, cells were resuspended with fresh freezing medium, adjusting the cell density to between 3×10^6-10×10^6 cells/mL. The cell suspension was partitioned into 1 mL aliquots per vial, and the vials were transferred to a -80° C. freezer. After one day at -80° C., the cell vials were transferred to liquid nitrogen freezer for storage.
# PBST solution was prepared by mixing 3600 mL of water, 400 mL of 10X PBS, and 4 mL of Tween 20. IFN-γ solution was reconstituted with 100 µL of water to obtain a 1 mg/mL solution, which was then diluted with 0.1 % BSA to provide a 100 ng/mL solution. The IFN-γ solution was stored at -20° C. LPS was reconstituted with 1 mL of PBS solution to obtain a 1 mg/mL stock solution, which was further diluted to 50 ng/mL with serum-free medium. The LPS solution was stored at 4° C.
# The 96 well plates were then incubated at 37° C. under a humidified atmosphere of 5% CO2 for 24 h.
# LPS induction: When IFN-γ treatment was completed, the supernatants were discarded by hand. 100 µL of a 1X solution of LPS in serum-free medium (50 ng/mL) was added. The plates were incubated in a 37° C. incubator under a humidified atmosphere of 5% CO2 for 4 h. Sample compounds were dissolved in DMSO and the compound solutions were dispensed to the wells using a Tecan D300e digital dispenser. The final concentration of DMSO for each well was 0.5%. The plates were then incubated at 37° C. under a humidified atmosphere of 5% CO2 for 1 h. 20 µL of a 6X solution of ATP was added (final concentration per well: 5 mM), and the plates incubated at 37° C. under a humidified atmosphere of 5% CO2 for 1 h. The supernatants were then collected and analyzed using an IL-Iβ detection kit. If needed, the test samples could be stored at -20° C. until analyzed.
# Compound dilution: Compound solution source plates (20 µL of a 10 mM solution of each compound was delivered to the specified wells and stored in a nitrogen cabinet until tested.
# Coat Elisa plate: The captured antibody (mAb Mt175) was diluted in PBS to a concentration of 2 µg/mL, and then used to coat the ELISA plate (SIGMA-P6366) overnight at 4° C.
# The antibody coat was discarded and the plate was washed 4 times with PBST. The plate was blocked by adding 25 µL/well of blocking buffer (LiCor-927-40000) with 0.1% Tween 20, then incubated for 1 h at room temperature. The blocking buffer was then discarded and the plate was washed 4 times with PBST.
# One hour before test sample addition, the sample plates were allowed to thaw at room temperature, centrifuged at 1000 rpm for 1 minute, and shaken for 30 seconds. 25 µL/well of the test samples were transferred to the ELISA plate, and the plate was incubated for 2 h at room temperature.
# The test samples were discarded and the ELISA plate was washed 4 times with PBST. 15 µL/well of mAb7P10-biotin at 0.5 µg/mL (1:1000) in blocking buffer was then added to the ELISA plate and it was incubated for 1 h at room temperature.
# The antibody was discarded and the ELISA plate was washed 4 times with PBST. Then 15 µL/well of streptavidin-HRP diluted 1:1000 in blocking buffer was added to the ELISA plate and it was allowed to incubate for 1 h at room temperature.
# [2] = test system: NLRP3 (IL-1β secretion from THP-1 cells); assay: IL-1β secretion assay in 384-well plates, PMA differentiated THP-1 cells, LPS and nigericin stimulation; type: cell-based; conditions: Homo sapiens; THP-1 cells, PMA 5 ng/mL, LPS 25 ng/mL, nigericin, IL-1β ELISA, 384-well; read-out: Activity
# Protocol: as §1, with “Cell culture medium employed contained RPMI 1640 medium (89%), FBS (10%), Pen/Strep (1%), and 2-mercaptoethanol (0.05 mM).” left out
# PMA was dissolved in DMSO to make a stock solution at 5 mg/mL and stored in 10 µl aliquots at -20° C. for single use. PMA is added to normal growth medium. LPS was diluted with 1 mL of water solution to provide a 1 mg/mL stock solution and stored in 15 µl aliquots at -20° C. for single use. Nigericin is diluted in ice cold 100% ethanol to 5 mg/mL (6.7 mM) and stored in 75 µL aliquots at -20° C. for single use. […] The two control conditions used to qualify and normalize test compound dose-response curves were as follows: High Control = 25 ng/mL LPS, 5 µM Nigericin, 0.5% DMSO, Low Control = 25 ng/mL, LPS, 0.5% DMSO.
# THP-1 cells were diluted to provide a suspension at a concentration of 1.0×10^6 cells/mL with the total volume of suspension required to enable the desired number of assay plates. The growth media was supplemented with PMA (5 ng/mL final concentration) and the cells were incubated at 37° C. under a humidified atmosphere of 5% CO2 for 40 h.
# All media was carefully aspirated from each culture flask. The cells were washed carefully with 1x DPBS. The cells were then briefly digested with trypsin LE for 5 minutes at 23° C. and immediately resuspended in cell growth media. After resuspension, the cells were centrifuged at 1000 rpm for 3 minutes and the supernatant was discarded. The cells were resuspended in DPBS and once again centrifuged at 1000 rpm for 5 minutes. The supernatant was discarded and the cell pellet was resuspended in serum-free media supplemented with LPS (25 ng/mL final concentration) to enable the distribution of 30 K THP-1 cells within 45 µL of media into each well of 384-well PDL-coated plates. The 384-well plates were then incubated at 37° C. under a humidified atmosphere of 5% CO2 for 2 h. Following this period, test compounds were dispensed by Tecan across the desired concentration range with all wells normalized to a final 0.5 % DMSO concentration. The plates were then incubated at 37° C. under a humidified atmosphere of 5% CO2 for 1 h. Following this period, 5 µL of the […] nigericin stock solution was added to each of the appropriate wells and plates were centrifuged at 1000 rpm for 30 seconds. The plates were the immediately reintroduced to the incubator at 37° C. under a humidified atmosphere of 5% CO2 for 2 h. After this time, 35 µL/well of supernatant was collected and transferred into v-bottom plate and centrifuged at 1000 rpm for 1 minute. These supernatant aliquots were analyzed using an IL-Iβ detection kit as described below. If needed, the test samples could be snap frozen and stored at -80° C. until analyzed.
# To prepare each ELISA plate, capture antibody (mAb Mt175) was diluted with PBS to a final concentration of 2 µg/mL and then 20 µL of this solution was added to each well of the ELISA plate. Each plate was allowed to incubate overnight at 4° C. The next day, the capture antibody solution was removed and discarded. […] Each ELISA plate was then allowed to incubate for 1 hour at 23° C. After this time, the blocking buffer was removed and discarded. Each ELISA plate was washed 4 times with PBST. During this time, the v-bottomed plates containing the supernatant aliquots from the assay run were centrifuged at 300 g for 5 minutes before transferring 15 µL/well of the supernatant sample to each ELISA plate. […]
Structure (SMILES),pIC50 [1],pIC50 [2]
"CC(C)c1nn(CC(=O)N[C@H]2C[C@@](C)(O)C2)c(=O)cc1-c1ccccc1 [Example 1, N-(cis-3-hydroxy-3-methylcyclobutyl)-2-(3-isopropyl-6-oxo-4-phenylpyridazin-1(6H)-yl)acetamide]",> 5.00,5.48
COc1cccc(-c2cc(=O)n(CC(=O)N[C@H]3C[C@@](C)(O)C3)nc2C(C)C)c1 [Example 7],> 5.00,5.15
"CC(C)c1nn(CC(=O)N[C@H]2C[C@@](C)(O)C2)c(=O)cc1-c1ccccc1F [Example 11, 2-(4-(2-fluorophenyl)-3-isopropyl-6-oxopyridazin-1(6H)-yl)-N-(cis-3-hydroxy-3-methylcyclobutyl)acetamide]",> 5.00,5.54
"CC(C)c1nn(CC(=O)N[C@H]2C[C@@](C)(O)C2)c(=O)cc1-c1cccc(Br)c1 [Example 14, 2-(4-(3-bromophenyl)-3-isopropyl-6-oxopyridazin-1(6H)-yl)-N-(cis-3-hydroxy-3-methylcyclobutyl)acetamide]",> 5.00,5.83
"CCc1nn(CC(=O)N[C@H]2C[C@@](C)(O)C2)c(=O)cc1-c1ccccc1 [Example 3, 2-(3-Ethyl-6-oxo-4-phenylpyridazin-1(6H)-yl)-N-(cis-3-hydroxy-3-methylcyclobutyl)acetamide]",> 5.00,5.17
"C[C@]1(O)C[C@@H](NC(=O)Cn2nc(Cl)c(-c3ccccc3)cc2=O)C1 [Example 18, 2-(3-chloro-6-oxo-4-phenylpyridazin-1(6H)-yl)-N-(cis-3-hydroxy-3-methylcyclobutyl)acetamide]",< 4.82,4.30
"Cc1cccc(-c2cc(=O)n(CC(=O)N[C@H]3C[C@@](C)(O)C3)nc2C(C)C)c1 [Example 9, N-(cis-3-hydroxy-3-methylcyclobutyl)-2-(3-isopropyl-6-oxo-4-(m-tolyl)pyridazin-1(6H)-yl)acetamide]",> 5.00,5.64
COc1nn(CC(=O)N[C@H]2C[C@@](C)(O)C2)c(=O)cc1-c1ccccc1 [Example 19],> 5.00,4.66
"CC(C)c1nn(CC(=O)N[C@H]2C[C@@](C)(O)C2)c(=O)cc1-c1cccc(C#N)c1 [Example 8, 2-(4-(3-cyanophenyl)-3-isopropyl-6-oxopyridazin-1(6H)-yl)-N-(cis-3-hydroxy-3-methylcyclobutyl)acetamide]",4.82 to 5.00,4.61
"CC(C)c1nn(CC(=O)N[C@H]2C[C@@](C)(O)C2)c(=O)nc1-c1ccccc1 [Example 20, N-(cis-3-hydroxy-3-methylcyclobutyl)-2-(6-isopropyl-3-oxo-5-phenyl-1,2,4-triazin-2(3H)-yl)acetamide]",> 5.00,4.62
"CC(C)c1nn(CC(=O)N[C@H]2C[C@@](C)(O)C2)c(=O)cc1-c1cccc(Cl)c1Cl [Example 15, 2-(4-(2,3-dichlorophenyl)-3-isopropyl-6-oxopyridazin-1(6H)-yl)-N-(cis-3-hydroxy-3-methylcyclobutyl)acet amide]",> 5.00,5.45
